Where a SMILES comes first, the peptide text is derived from it.
How the values were obtained:
[1] = Dual-channel assay, CF channel, POPC/POPS vesicles; assay type: biochemical; details: 12.5 µM POPC/POPS(9:1)⸧CX4/LCG-LUVs and 12.5 µM POPC/POPS(9:1)⸧CF-LUVs in 10 mM Hepes, 175 mM glucose, pH 7.5; error = SD of fit, n = 1
From the text: Ultimately, we have also tested the new conditions with vesicles containing the anionic lipid 1‐palmitoyl‐2‐oleoyl‐phosphatidylserine (POPS) with TP10, Pep‐1, and the LRLLRW peptide (Figures S41–S43 and Table S11). The results confirmed that the absolute activity as well as the difference between the CF dye efflux assay and the tandem membrane assay was nearly unaffected by the presence of 10% POPS with the only exception that the membrane‐translocating ability of TP10 was enhanced.
Assay protocol. An appropriate volume of the liposome stock solutions was diluted to 2 mL with outside buffer in a 10 ×10 mm quartz glass cuvette to afford a phospholipid concentration of 25 µM. The cuvette was placed into a thermostatted fluorimeter sample holder and gentl y stirred at 300 rpm at (25.0± 0.1) °C. Subsequentl y, the time-dependent change in fluorescence intensity (C F: λ exc = 492 nm, λ em = 517 nm) was recorded during addition of 20 µL peptide stock solution of var ying concentrations at 60 s and 20µ L of a calibration cocktail (1. 6% […]
Time-dep endent fluores cence intensit y traces, I (t), were subsequentl y normalized to fractional intensities, If(t), using equation (1) and the concentration- dependent fractional intensities just before the addition of th e calibration co cktail, I f, w ere then normaliz ed to fr actional membran e activities, Y, using equation (2). […]
Vesicles w ere prep ared a s described abov e (se e en try (4) in Table S2 and entry (3) in Table S3) and eluted with freshl y prepared 10 mM Hepes, 175mM glucos e, pH 7.5 i n the size exclusion chromatograph y. […] The fluorescence intensity w as simultaneous l y r eco rded in the CF chann el ( λ exc = 525 nm, λ em = 545 nm) and in the LCG channel ( λ exc = 369 nm, λ em = 475 nm) with an ex citation slit width of 5 nm and an emission slit width of 5 n m during addition of 20 µL peptide stock solution of varying concentrations at 60 s and 20 µL of a calibration

[2] = CX4/LCG supramolecular tandem membrane assay, POPC vesicles; assay type: in vitro ADME; details: n = 1; for Y30µM, membrane activity, CX4/LCG assay: 30 µM peptide, 25 µM POPC⸧CX4/LCG-LUVs (inside 700 µM CX4, 500 µM LCG) in 10 mM Hepes, pH 7.0, 25 °C, fluorescence λexc 369/λem 502 nm, peptide at 60 s, TX-100/protamine at 600 s, fractional activity; for EC50: pH 7.5, error = SD of fit
Method: Membrane Activity M easurements
Vesicle preparation. 100 µ L of a solution of 25 mg/ml of POPC in chloroform or 200 µ L of a solution of 25 mg/ml of EYPC in chloroform was purged with nitrogen and dried overnight under hi gh vacuum. The thin lipid film was rehydrated with 1 ml reh ydrati on buffer (= inside buffer, see Tabl e S2 ) b y agitation at room temperature for 30min and then subjected to 2 0 freeze- th aw c ycles (freezing in liquid nitro gen and thawing at 40 °C). […]
Ta b l e S 2. Combinations of lipids and inside and outside buffer for CX4/LCG -LUVs.
No. Lipid Inside buffer = rehydration buffer Outside buffer
(4) POPC 10 mM Hepes, 700 µM CX4, 500 µM LCG, 10 mM Hepes buffer, 175 mM glucose, pH 7.5 [a] 175 mM glucose, pH 7.5 [a]
[a] Glucose b uffers (183 mOsm/L at 25 °C) were used within one week after preparation.
Vesicle quality control. T o ensure the absence of the CX4/ LCG reporter pair in the ex travesicular ph ase, 20 µL of the collected liposome fr action w as diluted to 2 ml with outside buffer and the fluor escen ce (λ exc = 369 nm; λ em = 502 nm) was recorded during the addition of […]
The final lipid content in the liposome suspension after p repa rat ion and separ ation was d etermined b y NMR as p reviousl y reported. Assay protocol. An appropriate volume of the liposome stock solutions was diluted to 2m L with outside buffer in a 10 ×10 mm quartz glass cuvette to afford a phospholipid concentration of 25 µM. The cuvette was placed into a thermostatted fluorimeter sample holder at 25.0 °C and gentl y stirred at 300 rpm. Subsequently, the time-dependent change in fluorescence intensity (λ exc = 369 nm; λ em = 502 nm) was record ed during addition of 20 µ L of peptide stock solutions of varying concentrations at 60 s. At 600 s, 20µ L o f a solution containing 1.6% (wt/vol) TX-100 and 1.5 mM protamine was added for calibration to affo rd 0.016% (wt/vol) TX-100 and 15 µM protamine final concent rations.
Time-dep endent fluores cence intensit y traces, I (t), were subsequentl y normalized to fractional intensities, If(t), using equation (1). Therein, I 0 is the intensity just before addition of peptide and I ∞ is the constant intensit y after addition of the calibration cockt ail.
IIf (tt ) = II (tt )−II0II∞ − II0 (1)
The concentration-dependent fractional intensities just before the addition of the calibration cocktail, If, were then normalized to fractional membrane activities, Y, using equation (2).
Therein, If,0 is the fractional intensit y just before addition of the calibration cocktail in absence of peptide and I f,∞ is the constant fractional intensity after addition of the calibration cocktail.
YY = IIf − IIf,0IIf,∞ − IIf,0 (2)
The fractional membrane activities, Y, were subsequently plotted against the peptide concentration, c, and analysed using the Hill equation (3) to obtain the effective molar concentration, EC50, and the Hill coefficient, n. Y0 and Y ma x are the fractional membrane activities in absen ce o f p eptide and at max imal peptide concent rations. For peptides with too little activity to determine Y ma x ex perimentall y, Y max was fixed at 1.0 during fitting. […]

[3] = single-channel, 25 µM POPC⸧CX4/LCG-LUVs, inside 10 mM Hepes, 700 µM CX4, 500 µM LCG, 175 mM glucose, outside 10 mM Hepes, 175 mM glucose, read-out: EC50, CX4/LCG assay in glucose-containing buffer
[4] = 25 µM lipid, POPC⊃CX4/LCG-LUVs, 10 mM Hepes, fractional activity at 590 s, Hill fit, read-out: EC50, CX4/LCG assay, POPC

Question: Which EC50 [1] does the source give for `CC[C@H](C)[C@H](NC(=O)[C@H](CCCCN)NC(=O)[C@H](CCCCN)NC(=O)[C@H](C)NC(=O)[C@H](CC(C)C)NC(=O)[C@H](C)NC(=O)[C@H](C)NC(=O)[C@H](CC(C)C)NC(=O)[C@H](C)NC(=O)[C@H](CCCCN)NC(=O)[C@H](CC(C)C)NC(=O)[C@H](CC(N)=O)NC(=O)[C@@H](NC(=O)[C@H](CCCCN)NC(=O)CNC(=O)[C@H](CC(C)C)NC(=O)[C@H](CC(C)C)NC(=O)[C@H](Cc1ccc(O)cc1)NC(=O)CNC(=O)[C@H](C)N)[C@@H](C)CC)C(=O)N[C@@H](CC(C)C)C(=O)O` [TP10] here?
Answer: The EC50 was 0.027 ± 0.002 µM.

Question: And the “Y30µM, membrane activity, CX4/LCG assay” value [2]?
Answer: The value was 0.88.

Question: And the EC50 [2, 3]?
Answer: Its EC50 is 1.7 ± 0.6 µM.

Question: What does the source list for `CC(C)C[C@H](NC(=O)[C@H](CC(C)C)NC(=O)[C@H](CCCNC(=N)N)NC(=O)[C@@H](N)CC(C)C)C(=O)N[C@@H](CCCNC(=N)N)C(=O)N[C@@H](Cc1c[nH]c2ccccc12)C(N)=O` [LRLLRW] (H-LRLLRW-NH2)?
Answer: EC50 [1]: 28 ± 10 µM; Y30µM, membrane activity, CX4/LCG assay [2]: 0.53; EC50 [2, 3]: 14 ± 2 µM

Question: With `CC[C@H](C)[C@H](NC(=O)[C@H](CCCCN)NC(=O)[C@@H](NC(=O)[C@@H](N)CCC(N)=O)[C@@H](C)CC)C(=O)N[C@@H](Cc1c[nH]c2ccccc12)C(=O)N[C@@H](Cc1ccccc1)C(=O)N[C@@H](CCC(N)=O)C(=O)N[C@@H](CC(N)=O)C(=O)N[C@@H](CCCNC(=N)N)C(=O)N[C@@H](CCCNC(=N)N)C(=O)N[C@@H](CCSC)C(=O)N[C@@H](CCCCN)C(=O)N[C@@H](Cc1c[nH]c2ccccc12)C(=O)N[C@@H](CCCCN)C(=O)N[C@@H](CCCCN)C(=O)O` (H-QIKIWFQNRRMKWKK-OH) as the compound, how does the EC50 [2, 4] read?
Answer: The EC50 was 70 ± 13 µM.

Question: And the “Y30µM, membrane activity, CX4/LCG assay” value [2]?
Answer: Its value is 0.49.

Question: What about the EC50 [2, 3] of the same compound?
Answer: The EC50 was 140 ± 40 µM.

Question: With `CC(C)[C@H](NC(=O)[C@H](CCCCN)NC(=O)[C@H](CCCNC(=N)N)NC(=O)[C@H](CCCCN)NC(=O)[C@H](CCCCN)NC(=O)[C@H](CCCCN)NC(=O)[C@@H]1CCCN1C(=O)[C@H](CCC(N)=O)NC(=O)[C@H](CO)NC(=O)[C@H](Cc1c[nH]c2ccccc12)NC(=O)[C@H](CC(=O)O)NC(=O)[C@@H](NC(=O)[C@H](Cc1c[nH]c2ccccc12)NC(=O)[C@H](Cc1c[nH]c2ccccc12)NC(=O)[C@@H](NC(=O)[C@H](CC(=O)O)NC(=O)[C@H](Cc1c[nH]c2ccccc12)NC(=O)[C@H](Cc1c[nH]c2ccccc12)NC(=O)[C@@H](NC(=O)[C@H](CC(=O)O)NC(=O)[C@@H](N)CCCCN)[C@@H](C)O)[C@@H](C)O)[C@@H](C)O)C(=O)O` [Pep‐1] (H-KDTWWDTWWTDWSQPKKKRKV-OH) as the compound, how does the EC50 [1] read?
Answer: Its EC50 is 698 ± 55 µM.

Question: And the EC50 [2, 4]?
Answer: The EC50 was 32 ± 14 µM.

Question: What about the “Y30µM, membrane activity, CX4/LCG assay” value [2] of the same compound?
Answer: The value was 0.67.

Question: What about the EC50 [2, 3] of the same compound?
Answer: The EC50 was 4.5 ± 0.7 µM.

— PMC12851007 (Angewandte Chemie (International Ed. in English), 2025)
